System: mouse
Details: in vivo, po

NNC(=O)NN.NNC(=O)NN.NNC(=O)NN.O=[N+]([O-])[O-].O=[N+]([O-])[O-].[Zn+2] [Ex. 25, Zn.3(CDH).2(NO3)]
Death rate of 30 mg adm.: 0/10
Death rate of 300 mg adm.: 3/10
Death rate of 2000 mg adm.: 10/10
LD50 level: > 300

NN.NN.O=[N+]([O-])[O-].O=[N+]([O-])[O-].[Zn+2] [Ex. 1, Zn.2(N2 H4).2(NO3)]
Death rate of 30 mg adm.: 0/10
Death rate of 300 mg adm.: 0/10
Death rate of 2000 mg adm.: 10/10
LD50 level: > 300 mg/kg

Source: US6073962A (priority 1994, dated 2000)
